According to PubChem BioAssay (NCI):
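Five concentrations, 48 hours, 96-well plates. TGI marks complete inhibition of growth.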

Assays:
Assay in all cases: NCI tumour cell line growth inhibition, 48 h
A549 NSCLC = system: A549 NSCLC
TK-10 renal = system: TK-10 renal
RPMI-8226 leukemia = system: RPMI-8226 leukemia
SK-MEL-5 melanoma = system: SK-MEL-5 melanoma
P388/ADR leukemia = system: P388/ADR leukemia
RXF 393 renal = system: RXF 393 renal
SNB-75 CNS = system: SNB-75 CNS
LXFL 529 NSCLC = system: LXFL 529 NSCLC
OVCAR-8 ovarian = system: OVCAR-8 ovarian
NCI-H23 lung = system: NCI-H23 lung
DMS 273 small cell lung = system: DMS 273 small cell lung
SK-MEL-28 melanoma = system: SK-MEL-28 melanoma
MALME-3M melanoma = system: MALME-3M melanoma
CCRF-CEM leukemia = system: CCRF-CEM leukemia
OVCAR-3 ovarian = system: OVCAR-3 ovarian
KM20L2 colon = system: KM20L2 colon
HOP-62 NSCLC = system: HOP-62 NSCLC
U251 CNS = system: U251 CNS
SNB-19 CNS = system: SNB-19 CNS
HOP-18 NSCLC = system: HOP-18 NSCLC
SK-OV-3 ovarian = system: SK-OV-3 ovarian
A498 renal = system: A498 renal
SW-620 colon = system: SW-620 colon
MDA-MB-231 breast = system: MDA-MB-231 breast
HOP-92 NSCLC = system: HOP-92 NSCLC
NCI-H522 lung = system: NCI-H522 lung
MDA-MB-435 = system: MDA-MB-435
SF-539 CNS = system: SF-539 CNS
DLD-1 colon = system: DLD-1 colon
HL-60(TB) leukemia = system: HL-60(TB) leukemia
SF-268 CNS = system: SF-268 CNS
M14 melanoma = system: M14 melanoma
HCT-116 colon = system: HCT-116 colon
SF-295 CNS = system: SF-295 CNS
ACHN renal = system: ACHN renal
SNB-78 CNS = system: SNB-78 CNS
LOX IMVI melanoma = system: LOX IMVI melanoma
SN12C renal = system: SN12C renal
HT29 colon = system: HT29 colon
MCF7 breast = system: MCF7 breast
DU-145 prostate = system: DU-145 prostate
OVCAR-4 ovarian = system: OVCAR-4 ovarian
786-0 renal = system: 786-0 renal
BT-549 breast = system: BT-549 breast
HCT-15 colon = system: HCT-15 colon
NCI-H226 lung = system: NCI-H226 lung
P388 leukemia = system: P388 leukemia
IGROV1 ovarian = system: IGROV1 ovarian
SK-MEL-2 melanoma = system: SK-MEL-2 melanoma
COLO 205 colon = system: COLO 205 colon
SR leukemia = system: SR leukemia
PC-3 prostate = system: PC-3 prostate
CAKI-1 renal = system: CAKI-1 renal
M19-MEL melanoma = system: M19-MEL melanoma
NCI-H460 lung = system: NCI-H460 lung
K-562 leukemia = system: K-562 leukemia
DMS 114 small cell lung = system: DMS 114 small cell lung
HCC-2998 colon = system: HCC-2998 colon
MOLT-4 leukemia = system: MOLT-4 leukemia
MDA-N = system: MDA-N
UACC-62 melanoma = system: UACC-62 melanoma
EKVX NSCLC = system: EKVX NSCLC
KM12 colon = system: KM12 colon
OVCAR-5 ovarian = system: OVCAR-5 ovarian
XF 498 CNS = system: XF 498 CNS
NCI/ADR-RES ovarian = system: NCI/ADR-RES ovarian
UO-31 renal = system: UO-31 renal
UACC-257 melanoma = system: UACC-257 melanoma
RXF-631 renal = system: RXF-631 renal

## COc1ccc2nc3ccccc3c(NCCN(C)CCCl)c2c1
A549 NSCLC
  TGI: 4.88 µM
TK-10 renal
  TGI: 15.7 µM
RPMI-8226 leukemia
  TGI: 1.53 µM
SK-MEL-5 melanoma
  TGI: 2.03 µM
P388/ADR leukemia
  TGI: 8.73 µM
RXF 393 renal
  TGI: 1.86 µM
SNB-75 CNS
  TGI: 4.07 µM
LXFL 529 NSCLC
  TGI: 1.85 µM
OVCAR-8 ovarian
  TGI: 2.76 µM
NCI-H23 lung
  TGI: 1.88 µM
DMS 273 small cell lung
  TGI: 2.35 µM
SK-MEL-28 melanoma
  TGI: 3.97 µM
MALME-3M melanoma
  TGI: 1.5 µM
CCRF-CEM leukemia
  TGI: 3.67 µM
OVCAR-3 ovarian
  TGI: 3.29 µM
KM20L2 colon
  TGI: 2.88 µM
HOP-62 NSCLC
  TGI: 3.7 µM
U251 CNS
  TGI: 3.16 µM
SNB-19 CNS
  TGI: 7.44 µM
HOP-18 NSCLC
  TGI: 6.29 µM
SK-OV-3 ovarian
  TGI: 3.5 µM
A498 renal
  TGI: 3.02 µM
SW-620 colon
  TGI: 1.91 µM
MDA-MB-231 breast
  TGI: 2.98 µM
HOP-92 NSCLC
  TGI: 3.85 µM
NCI-H522 lung
  TGI: 1.51 µM
MDA-MB-435
  TGI: 2.15 µM
SF-539 CNS
  TGI: 1.85 µM
DLD-1 colon
  TGI: 3.45 µM
HL-60(TB) leukemia
  TGI: 1.73 µM
SF-268 CNS
  TGI: 3.85 µM
M14 melanoma
  TGI: 2.29 µM
HCT-116 colon
  TGI: 2.63 µM
SF-295 CNS
  TGI: 4.17 µM
ACHN renal
  TGI: 1.91 µM
SNB-78 CNS
  TGI: 4.76 µM
LOX IMVI melanoma
  TGI: 1.77 µM
SN12C renal
  TGI: 2.86 µM
HT29 colon
  TGI: 4.95 µM
MCF7 breast
  TGI: 4.18 µM
DU-145 prostate
  TGI: 4.47 µM
OVCAR-4 ovarian
  TGI: 2.8 µM
786-0 renal
  TGI: 1.89 µM
BT-549 breast
  TGI: 3.24 µM
HCT-15 colon
  TGI: 7.56 µM
NCI-H226 lung
  TGI: 2.26 µM
P388 leukemia
  TGI: 1.51 µM
IGROV1 ovarian
  TGI: 2.58 µM
SK-MEL-2 melanoma
  TGI: 2.41 µM
COLO 205 colon
  TGI: 1.84 µM
SR leukemia
  TGI: 2.31 µM
PC-3 prostate
  TGI: 2.24 µM
CAKI-1 renal
  TGI: 2.2 µM
M19-MEL melanoma
  TGI: 2.48 µM
NCI-H460 lung
  TGI: 2.49 µM
K-562 leukemia
  TGI: 9.24 µM
DMS 114 small cell lung
  TGI: 2.31 µM
HCC-2998 colon
  TGI: 2.15 µM
MOLT-4 leukemia
  TGI: 0.497 µM
MDA-N
  TGI: 2.4 µM
UACC-62 melanoma
  TGI: 2.03 µM
EKVX NSCLC
  TGI: 4.37 µM
KM12 colon
  TGI: 4.13 µM
OVCAR-5 ovarian
  TGI: 3.84 µM
XF 498 CNS
  TGI: 2.3 µM
NCI/ADR-RES ovarian
  TGI: 3.79 µM
UO-31 renal
  TGI: 3.38 µM
UACC-257 melanoma
  TGI: 9.46 µM

## COc1cc2c(cc1OC)C1Cc3sccc3CN1CC2 (configuration not stated)
A549 NSCLC
  TGI: > 100 µM
TK-10 renal
  TGI: > 100 µM
RPMI-8226 leukemia
  TGI: > 100 µM
SK-MEL-5 melanoma
  TGI: > 100 µM
RXF 393 renal
  TGI: > 100 µM
SNB-75 CNS
  TGI: > 100 µM
LXFL 529 NSCLC
  TGI: > 100 µM
OVCAR-8 ovarian
  TGI: > 100 µM
NCI-H23 lung
  TGI: > 100 µM
DMS 273 small cell lung
  TGI: > 100 µM
MALME-3M melanoma
  TGI: > 100 µM
CCRF-CEM leukemia
  TGI: > 100 µM
OVCAR-3 ovarian
  TGI: > 100 µM
KM20L2 colon
  TGI: > 100 µM
HOP-62 NSCLC
  TGI: > 100 µM
U251 CNS
  TGI: > 100 µM
SNB-19 CNS
  TGI: > 100 µM
HOP-18 NSCLC
  TGI: > 100 µM
RXF-631 renal
  TGI: > 100 µM
SK-OV-3 ovarian
  TGI: > 100 µM
SW-620 colon
  TGI: > 100 µM
HOP-92 NSCLC
  TGI: > 100 µM
NCI-H522 lung
  TGI: > 100 µM
SF-539 CNS
  TGI: > 100 µM
DLD-1 colon
  TGI: > 100 µM
HL-60(TB) leukemia
  TGI: > 100 µM
SF-268 CNS
  TGI: > 100 µM
M14 melanoma
  TGI: > 100 µM
HCT-116 colon
  TGI: > 100 µM
SF-295 CNS
  TGI: > 100 µM
ACHN renal
  TGI: > 100 µM
SNB-78 CNS
  TGI: > 100 µM
LOX IMVI melanoma
  TGI: > 100 µM
SN12C renal
  TGI: > 100 µM
HT29 colon
  TGI: > 100 µM
OVCAR-4 ovarian
  TGI: > 100 µM
HCT-15 colon
  TGI: > 100 µM
NCI-H226 lung
  TGI: > 100 µM
IGROV1 ovarian
  TGI: > 100 µM
SK-MEL-2 melanoma
  TGI: > 100 µM
SR leukemia
  TGI: > 100 µM
CAKI-1 renal
  TGI: > 100 µM
M19-MEL melanoma
  TGI: > 100 µM
NCI-H460 lung
  TGI: > 100 µM
K-562 leukemia
  TGI: > 100 µM
DMS 114 small cell lung
  TGI: > 100 µM
HCC-2998 colon
  TGI: > 100 µM
MOLT-4 leukemia
  TGI: > 100 µM
UACC-62 melanoma
  TGI: > 100 µM
EKVX NSCLC
  TGI: > 100 µM
OVCAR-5 ovarian
  TGI: > 100 µM
XF 498 CNS
  TGI: > 100 µM
UO-31 renal
  TGI: > 100 µM
UACC-257 melanoma
  TGI: > 100 µM
